Columns and labels:
PD-1/PD-L1 = PD-1/PD-L1 (Homo sapiens, UniProt Q9NZQ7); test: PD-1/PD-L1 biochemical protein-protein interaction assay (ALPHA); format: binding; details: 0.3 nM His tagged PD-L1, 2.5 nM biotinylated Fc-PD-1, 60 minutes at 25° C., read-out: IC50 PD-L1-PD-1 Alpha IC50-mono PD-L1-fcP-D1
Outline: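 IC50 values derive from four-parameter fits of ALPHA signal decrease. Assay: 0.3 nM His-tagged PD-L1 with 2.5 nM biotinylated Fc-PD-1, Hepes pH 7.4 with 0.005% Tween 20 and 0.01% BSA, 60 min at 25° C, then anti-His acceptor and streptavidin donor beads.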

[1] = molecular target: T1, interaction between the recombinant extracellular domain (ECD) of PD-1 and native cell-bound PD-L1 (Homo sapiens, UniProt Q9NZQ7); test: CHO/PD-L1 cell capture assay; format: cell-based; details: CHO cells overexpressing PD-L1, pre-incubated 1 hr with compound, captured on biotinylated Fc-PD-1 coated plates, 75 min at room temperature
T1 construct: expressed in transfected cells
T1 sequence (Q9NZQ7 19-290): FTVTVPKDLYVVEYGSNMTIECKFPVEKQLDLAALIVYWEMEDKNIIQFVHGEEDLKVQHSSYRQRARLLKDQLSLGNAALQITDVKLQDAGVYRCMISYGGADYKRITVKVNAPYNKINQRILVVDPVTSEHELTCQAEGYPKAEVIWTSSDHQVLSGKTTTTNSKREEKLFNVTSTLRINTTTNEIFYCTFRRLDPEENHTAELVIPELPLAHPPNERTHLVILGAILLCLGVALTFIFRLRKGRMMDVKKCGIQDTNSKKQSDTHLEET
Outline: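 EC50 values came from four-parameter fits of counts of Draq5-stained CHO-PD-L1 cells retained on plate-bound biotinylated Fc-PD-1 ECD, enumerated by high-content imaging. Cells in PBS pH 7.4 with EDTA and 2% BSA had 1 hr compound pre-incubation, then 75 min capture at room temperature.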

PD-1/PD-L1 interaction = molecular target: T2, PD-1/PD-L1 interaction (Homo sapiens, UniProt Q9NZQ7); test: PD-1/PD-L1 NFAT reporter co-culture assay; format: cell-based; details: Jurkat PD-1 NFAT-luciferase cells co-cultured with aAPC-PD-L1 CHO cells, 6 hrs at 37° C.; read-out: EC50 NFAT Luciferase
T2 construct: expressed in transfected cells; host or cells: CHO cells (aAPC-PD-L1) co-cultured with Jurkat cells overexpressing PD-1 and an NFAT-luciferase reporter
T2 sequence (Q9NZQ7 19-290): as above
Outline: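 Jurkat cells overexpressing PD-1 with NFAT-driven luciferase were mixed with compound in RPMI 1640/2% FBS and seeded onto overnight-plated CHO aAPC-PD-L1 cells expressing surface anti-CD3 and PD-L1. Co-culture ran 6 h at 37 °C; luminescence read with ONE-Glo; EC50 from four-parameter fit.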

Sequence of PD-1/PD-L1 (Q9NZQ7 19-238 limits assumed): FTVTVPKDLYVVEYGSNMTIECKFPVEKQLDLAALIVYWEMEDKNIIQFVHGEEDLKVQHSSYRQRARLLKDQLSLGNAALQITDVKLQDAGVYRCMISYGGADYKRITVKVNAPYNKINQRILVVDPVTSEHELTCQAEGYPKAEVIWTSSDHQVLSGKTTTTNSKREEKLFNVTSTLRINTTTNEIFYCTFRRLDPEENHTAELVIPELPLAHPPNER

| Compound | IC50 (PD-1/PD-L1) [nM] | EC50 [1] [nM] | EC50 (PD-1/PD-L1 interaction) [nM] |
| --- | --- | --- | --- |
| Cc1c(COc2nc(OCc3cc(C#N)cc(C#N)c3)c(CNC[C@@H](O)CC(=O)O)cc2Br)cccc1-c1cccc(COc2nc(OCc3cc(C#N)cc(C#N)c3)c(CNC[C@@H](O)CC(=O)O)cc2Br)c1C [Example 121, (3S,3′S)-4,4′-((((((2,2′-dimethyl-[1,1′-biphenyl]-3,3′-diyl)bis(methylene))bis(oxy))bis(5-bromo-2-((3,5-dicyanobenzyl)oxy)pyridine-6,3-diyl))bis(methylene))bis(azanediyl))bis(3-hydroxybutanoic acid)] | 1.4 | 176 | 74 |
| Cc1c(COc2nc(OCCN3CCOCC3)c(CNC[C@@H](O)CC(=O)O)cc2Cl)cccc1-c1cccc(COc2nc(OCCN3CCOCC3)c(CNC[C@@H](O)CC(=O)O)cc2Cl)c1C [Example 159, (3S,3′S)-4,4′-((((((2,2′-dimethyl-[1,1′-biphenyl]-3,3′-diyl)bis(methylene))bis(oxy))bis(5-chloro-2-(2-morpholinoethoxy)pyridine-6,3-diyl))bis(methylene))bis(azanediyl))bis(3-hydroxybutanoic acid)] | 0.5 | 190 | 538 |
| COc1nc(OCc2cccc(-c3cccc(COc4nc(OC)c(CNC[C@@H](O)CC(=O)O)cc4C(F)(F)F)c3C)c2C)c(C(F)(F)F)cc1CNC[C@@H](O)CC(=O)O [Example 160, (3S,3′S)-4,4′-((((((2,2′-dimethyl-[1,1′-biphenyl]-3,3′-diyl)bis(methylene))bis(oxy))bis(2-methoxy-5-(trifluoromethyl)pyridine-6,3-diyl))bis(methylene))bis(azanediyl))bis(3-hydroxybutanoic acid)] | 0.6 | 191 | 139 |
| Cc1c(COc2cc(OCc3cncc(C#N)c3)c(CNC[C@@H](O)CC(N)=O)cc2Cl)cccc1-c1cccc(COc2cc(OCc3cncc(C#N)c3)c(CNC[C@@H](O)CC(N)=O)cc2Cl)c1C [Example 165, (3S,3′S)-4,4′-((((((2,2′-dimethyl-[1,1′-biphenyl]-3,3′-diyl)bis(methylene))bis(oxy))bis(5-chloro-2-((5-cyanopyridin-3-yl)methoxy)-4,1-phenylene))bis(methylene))bis(azanediyl))bis(3-hydroxybutanamide)] | 5.8 | 156 | 352 |
| COc1nc(OCc2cccc(-c3cccc(COc4nc(OC)c(CNC[C@H](O)C(=O)O)cc4Cl)c3C)c2C)c(Cl)cc1CNC[C@H](O)C(=O)O [Example 166, (2S,2′S)-3,3′-((((((2,2′-dimethyl-[1,1′-biphenyl]-3,3′-diyl)bis(methylene))bis(oxy))bis(5-chloro-2-methoxypyridine-6,3-diyl))bis(methylene))bis(azanediyl))bis(2-hydroxypropanoic acid)] | 2 | 41.6 | 139 |
| COc1nc(OCc2cccc(-c3cccc(COc4cc(OCc5cncc(C#N)c5)c(CNC[C@@H](O)CC(=O)O)cc4Cl)c3C)c2C)ccc1CNC[C@@H](O)CC(=O)O [Example 203, (S)-4-(((6-((3′-((4-((((S)-3-Carboxy-2-hydroxypropyl)amino)methyl)-2-chloro-5-((5-cyanopyridin-3-yl)methoxy)phenoxy)methyl)-2,2′-dimethyl-[1,1′-biphenyl]-3-yl)methoxy)-2-methoxypyridin-3-yl)methyl)amino)-3-hydroxybutanoic acid] | 1 | 317 | 696 |
| Cc1c(COc2cc(OCc3cncc(C#N)c3)c(CNCCO)cc2Cl)cccc1-c1cccc2c1CCN2C(=O)c1ccc(CNCCO)c(OCc2cncc(C#N)c2)c1 [Example 205, 5-((4-Chloro-5-((3-(1-(3-((5-cyanopyridin-3-yl)methoxy)-4-(((2-hydroxyethyl)amino)methyl)benzoyl)indolin-4-yl)-2-methylbenzyl)oxy)-2-(((2-hydroxyethyl)amino)methyl)phenoxy)methyl)nicotinonitrile] | 6.9 | 394 | 1430 |
| COc1nc(OCc2cccc(-c3cccc(COc4nc(OC)c(CNC[C@@H](O)CC(=O)O)cc4I)c3C)c2C)c(I)cc1CNC[C@@H](O)CC(=O)O [Example 241, (3S,3′S)-4,4′-((((((2,2′-dimethyl-[1,1′-biphenyl]-3,3′-diyl)bis(methylene))bis(oxy))bis(5-iodo-2-methoxypyridine-6,3-diyl))bis(methylene))bis(azanediyl))bis(3-hydroxybutanoic acid)] | 0.6 | 166 | 275 |

More lines, now with the values ahead:

| IC50 (PD-1/PD-L1) [nM] | EC50 [1] [nM] | EC50 (PD-1/PD-L1 interaction) [nM] | Compound |
| --- | --- | --- | --- |
| 0.5 | 140 | 186 | COc1nc(OCc2cccc(-c3cccc(COc4nc(OC)c(CNC[C@H](O)CC(=O)O)cc4Br)c3C)c2C)c(Br)cc1CNC[C@H](O)CC(=O)O [Example 114, (3R,3′R)-4,4′-((((((2,2′-dimethyl-[1,1′-biphenyl]-3,3′-diyl)bis(methylene))bis(oxy))bis(5-bromo-2-methoxypyridine-6,3-diyl))bis(methylene))bis(azanediyl))bis(3-hydroxybutanoic acid)] |
| 0.1 | 180 | 327 | Cc1c(COc2nc(OCc3cncnc3)c(CNC[C@@H](O)CC(=O)O)cc2Br)cccc1-c1cccc(COc2nc(OCc3cncnc3)c(CNC[C@@H](O)CC(=O)O)cc2Br)c1C [Example 126, (3S,3′S)-4,4′-((((((2,2′-dimethyl-[1,1′-biphenyl]-3,3′-diyl)bis(methylene))bis(oxy))bis(5-bromo-2-(pyrimidin-5-ylmethoxy)pyridine-6,3-diyl))bis(methylene))bis(azanediyl))bis(3-hydroxybutanoic acid)] |
| 0.3 | 117 | 1200 | CNC(=O)COc1nc(OCc2cccc(-c3cccc(COc4nc(OCC(=O)NC)c(CNC[C@@H](O)CC(=O)O)cc4Br)c3C)c2C)c(Br)cc1CNC[C@@H](O)CC(=O)O [Example 147, (3S,3′S)-4,4′-((((((2,2′-dimethyl-[1,1′-biphenyl]-3,3′-diyl)bis(methylene))bis(oxy))bis(5-bromo-2-(2-(methylamino)-2-oxoethoxy)pyridine-6,3-diyl))bis(methylene))bis(azanediyl))bis(3-hydroxybutanoic acid)] |
| 0.2 | 211 | 6490 | Cc1c(COc2nc(OCC(N)=O)c(CNC[C@@H](O)CC(=O)O)cc2Br)cccc1-c1cccc(COc2nc(OCC(N)=O)c(CNC[C@@H](O)CC(=O)O)cc2Br)c1C [Example 155, (3S,3′S)-4,4′-((((((2,2′-dimethyl-[1,1′-biphenyl]-3,3′-diyl)bis(methylene))bis(oxy))bis(2-(2-amino-2-oxoethoxy)-5-bromopyridine-6,3-diyl))bis(methylene))bis(azanediyl))bis(3-hydroxybutanoic acid)] |
| 0.2 | 81.1 | 465 | Cc1c(COc2ccc(CNC[C@@H](O)CC(=O)O)c(OCc3cncnc3)n2)cccc1-c1cccc(COc2ccc(CNC[C@@H](O)CC(=O)O)c(OCc3cncnc3)n2)c1C [Example 157, (3S,3′S)-4,4′-((((((2,2′-dimethyl-[1,1′-biphenyl]-3,3′-diyl)bis(methylene))bis(oxy))bis(2-(pyrimidin-5-ylmethoxy)pyridine-6,3-diyl))bis(methylene))bis(azanediyl))bis(3-hydroxybutanoic acid)] |
| 0.2 | 161 | 672 | Cc1c(COc2cc(OCc3cncc(C#N)c3)c(CNC[C@@H](O)CC(=O)O)cc2Cl)cccc1-c1cccc2c1CCN2C(=O)c1ccc(CNC[C@@H](O)CC(=O)O)c(OCc2cncc(C#N)c2)c1 [Example 206, (S)-4-((4-(4-(3-((4-((((S)-3-Carboxy-2-hydroxypropyl)amino)methyl)-2-chloro-5-((5-cyanopyridin-3-yl)methoxy)phenoxy)methyl)-2-methylphenyl)indoline-1-carbonyl)-2-((5-cyanopyridin-3-yl)methoxy)benzyl)amino)-3-hydroxybutanoic acid] |
| 0.2 | 129 | 288 | Cc1c(COc2ccc(CNC[C@@H](O)CC(=O)O)c(OCc3cncc(C#N)c3)n2)cccc1-c1cccc(COc2ccc(CNC[C@@H](O)CC(=O)O)c(OCc3cncc(C#N)c3)n2)c1C [Example 242, (3S,3′S)-4,4′-((((((2,2′-dimethyl-[1,1′-biphenyl]-3,3′-diyl)bis(methylene))bis(oxy))bis(2-((5-cyanopyridin-3-yl)methoxy)pyridine-6,3-diyl))bis(methylene))bis(azanediyl))bis(3-hydroxybutanoic acid)] |
| 0.2 | 90.6 | 393 | COc1nc(OCc2cccc(-c3cccc(COc4nc(OC)c(CNC[C@@H](O)CC(=O)O)cc4C#N)c3C)c2C)c(C#N)cc1CNC[C@@H](O)CC(=O)O [Example 243, (3S,3′S)-4,4′-((((((2,2′-dimethyl-[1,1′-biphenyl]-3,3′-diyl)bis(methylene))bis(oxy))bis(5-cyano-2-methoxypyridine-6,3-diyl))bis(methylene))bis(azanediyl))bis(3-hydroxybutanoic acid)] |

— patent US12590062B2, “PD-1/PD-L1 inhibitors” (Gilead Sciences, Inc., priority 2017, dated 2026)
